In paper PMC11554305, “Functional identification of soluble uric acid as an endogenous inhibitor of CD38” (eLife, 2024):

Experiments:
[1] = target: T1, recombinant human CD38 (hCD38) (Homo sapiens, UniProt P28907); assay: CD38 cyclase activity, recombinant hCD38 (NGD substrate); type: biochemical; conditions: sUA 0–500 μM, Figure 1B
T1 construct: the commercial recombinant hCD38 without a transmembrane region was partially used in this study; purchased Sino Biological 10818-H08H
T1 sequence (P28907 43-300 limits assumed): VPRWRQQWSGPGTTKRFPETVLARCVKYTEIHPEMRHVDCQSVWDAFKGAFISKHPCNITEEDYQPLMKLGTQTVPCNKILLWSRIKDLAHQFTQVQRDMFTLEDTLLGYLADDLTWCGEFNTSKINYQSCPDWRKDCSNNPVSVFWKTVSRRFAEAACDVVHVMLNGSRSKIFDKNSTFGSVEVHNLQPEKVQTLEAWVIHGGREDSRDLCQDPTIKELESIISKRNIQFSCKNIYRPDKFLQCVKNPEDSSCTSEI
Experimental: The cyclase activity of CD38 was measured as previously described ([Higashida et al., 1999]; [Jin et al., 2007]). CD38 cyclase activity was measured using 60 μM NGD as a substrate in cyclase reaction buffer (100 mM KCl, 10 μM CaCl2, and 50 mM Tris-HCl, pH 6.6). Tissues were cut into pieces and suspended in the buffer (5 mM MgCl2, 10 mM Tris-HCl, pH 7.3) at 4°C for 30 min. Then, the suspension was homogenized on ice, and the supernatant was collected after centrifugation. To collect the crude membrane fractions, the supernatant was centrifuged at 105,000×g for 30 min. The final pellet was resuspended in 10 mM Tris-HCl solution (pH 6.6) for cyclase assay. Homogenates of THP-1 or A549 cells, and recombinant hCD38 were used directly for cyclase assays. The loading volume of enzyme was 4–20 μL, the total volume of reaction system was 3 mL. To detect enzyme inhibition, except when specified, the ligands were directly dissolved in cyclase reaction buffer before pH adjustment, after which, the pH was immediately adjusted to 6.6. […]
(§1) The reaction buffer for hydrolase or cyclase assays was excited at 300 nm, and fluorescence emission was measured every second at 410 nm by Shimazu RF-6000 spectrofluorometer. Hydrolase or cyclase activity was calculated from the linear portion of the time course by fitting a linear function to the data points recorded within 5 min.

[2] = target: T1, recombinant human CD38 (hCD38); assay: CD38 hydrolase activity, recombinant hCD38 (ε-NAD+ substrate); type: biochemical; conditions: sUA 0–500 μM, Figure 1B
Experimental: The hydrolase activity of CD38 was measured according to a previous report ([de Oliveira et al., 2018]) with minor modifications. CD38 hydrolase activity was measured using 50 μM ε-NAD^+ as a substrate in hydrolase reaction buffer (250 mM sucrose, 40 mM Tris-HCl, pH 7.4). Briefly, cells or tissues were directly homogenized in blank reaction buffer on ice, and recombinant hCD38 was diluted in blank reaction buffer for subsequent assays. The tissue homogenates were centrifuged to collect the supernatant for enzyme assays. The loading volume of enzyme was 4–30 μL, the total volume of the reaction system was 3 mL. To detect enzyme inhibition, except when specified, the ligands were directly dissolved in hydrolase reaction buffer before pH adjustment, after which, the pH was immediately adjusted to 7.4. All reaction buffers, with or without ligands, were freshly prepared before each assay. For measurement of hydrolase activity, 3 mL reaction buffer containing enzyme, ε-NAD^+, and ligands at indicated concentrations was maintained at 37°C with constant stirring.
as §1

primed THP-1 cells = assay: Canonical inflammasome assay, IL-1β release in primed THP-1 cells; type: cell-based, human
Experimental: Human IL-1β, mouse IL-1β, IL-6, IL-18, TNF-α, and CXCL1 levels were measured according to the protocols provided by the manufacturer. Serum samples were diluted before ELISA when applicable. In this study, all the samples were frozen after collection and thawed before ELISA.
Naïve THP-1 cells were primed with 0.5 μM phorbol 12-myristate 13-acetate for 3 hr the day before stimulation. Primed THP-1 cells were pre-incubated in RPMI-1640 medium in the presence or absence of sUA (5 or 10 mg/dL) for 2 hr. The cells were then washed twice with sterile PBS, and were stimulated with MSU crystals, cLPS, zymosan, and ATP in serum-free RPMI-1640 medium for 4 hr.
After stimulation, the culture medium was collected and centrifuged at 3000 rpm, 4°C for 5 min, the supernatant was collected and stored at –30°C until ELISA.

THP-1 cells = assay: Intracellular NAD+ assay in THP-1 cells; type: cell-based, human; conditions: sUA 0–10 mg/dL pre-incubation 2 hr, then stimulation 6 hr
Experimental: Naïve THP-1 cells were pre-incubated with sUA (0–10 mg/dL) in RPMI-1640 medium containing 1% FBS for 2 hr, then the cells were washed twice with sterile PBS and stimulated with MSU crystals, cLPS, zymosan, or ATP for 6 hr. Subsequently, the cells were washed twice with sterile PBS, and then a total of 100 μL 5% ice-cold PCA was used to extract NAD^+ from cells in each well and medium as mentioned above.
As mentioned above, samples (cells, tissues, blood, or reaction buffer) were treated with ice-cold PCA, after extraction and centrifugation, the collected supernatant was appropriately diluted in 5% ice-cold PCA when applicable, and then was vortexed for 30 s and centrifuged at 15,000 rpm, 4°C for 5 min. Afterward, 30 μL supernatant was added into 200 μL 5 mM ammonium formate containing internal standards at indicated concentrations. Then, all the samples were vortexed for 30 s and centrifuged at 15,000 rpm, 4°C for 5 min again, the final supernatant was used for subsequent measurement. All the samples after handling were immediately analyzed in this study without freezing and thawing.
The LC-MS/MS system consisted of a triple quadrupole LCMS-8050 (Shimadzu) and an LC-30A system (Shimadzu). […] NAD^+ and NMN were measured independently in this study, as their peaks were hardly separated within a short time.

primed WT BMDMs = assay: sUA uptake assay in primed WT BMDMs; type: cell-based, mouse; conditions: sUA 100, 200 or 500 μM, 2 or 15 hr
Experimental: WT BMDMs were primed with 100 ng/mL ultrapure LPS for 4 hr. Then, the cells were washed twice with sterile PBS, and maintained in RPMI-1640 medium containing sUA (100, 200, or 500 μM) for 2 or 15 hr. Subsequently, the cells were washed twice with ice-cold sterile PBS to terminate uptake, 100 μL 5% ice-cold PCA was added into each well. The plates were placed on ice for 2 hr, then cell samples were collected and centrifuged at 15,000 rpm, 4°C for 10 min. The supernatant was used for subsequent handling and measurement (see LC-MS/MS analysis).

Ki [1]: 57.1 µM | Ki [2]: 65.7 µM | Induction of IL-1β release by sUA itself (primed THP-1 cells): did not induce IL-1β release | sUA uptake (primed WT BMDMs): very low
SMILES: O=c1[nH]c(=O)c2[nH]c(=O)[nH]c2[nH]1 [sUA, uric acid]
IL-1β release after stimulation (primed THP-1 cells; sUA pre-incubation 2 hr, then MSU crystals, cLPS, zymosan or ATP): moderately limited IL-1β release | Intracellular NAD+ (THP-1 cells): boosted intracellular NAD^+
